Patent US20250017856A1, “CO-FORMULATION AND CO-DELIVERY OF IONIZABLE COLLOID FORMING DRUGS WITH NUCLEIC ACIDS” (THE GOVERNING COUNCIL OF THE UNIVERSITY OF TORONTO, priority 2023, published 2025)

Columns and labels:
[1] = RNA encapsulation efficiency (modified Quant-iT RiboGreen assay) and loading; format: physicochemical; details: for Encapsulation efficiency (%) / Small molecule drug mass % / siRNA mass %: FxNP
Text: (§1) [NT] antisense (SEQ ID NO: 2): [NT] where “d” denotes a DNA base), siFLuc-2 (sense (SEQ ID NO: 3): [NT] antisense (SEQ ID NO: 4): [NT] where “d” denotes a DNA base and “m” indicates a 2'-O-methyl RNA base), sinLuc (sense (SEQ ID NO: 5): [NT] antisense SEQ ID NO: 6): [NT] where “d” denotes a DNA base), […]1 (sense (SEQ ID NO: 7): [NT] antisense (SEQ ID NO: 8): [NT] where “d” denotes a DNA base and “m” indicates a 2'-O-methyl RNA base), siNT (sense (SEQ ID NO: 9): [NT] antisense (SEQ ID NO: 10): [NT] where “d” denotes a DNA base and “m” indicates a 2'-O-methyl RNA base), mFLuc (EZ Cap Firefly Luciferase mRNA (5-moUTP), ApexBio), rRNA or RNA from Torula utilis yeast (T.U. RNA) was diluted in citrate buffer (50 or 25 mM, pH 4), malate buffer (25 mM, pH 4.0) or acetate buffer (25 mM, pH 4.0). A lipid/drug mix concentration of 5.5 mM was used with a total flow rate of 9 mL/min at a 3:1 ratio of aqueous to organic phase. […] After formulation, buffer exchange into PBS or Tris-buffered saline (TBS; pH 8.5) was performed using Amicon Ultra-4 centrifugal filters (molecular weight cut-off 10 kDa). Hydrodynamic diameter, polydispersity index (PDI), and scattering intensity were measured by dynamic light scattering (DLS) using a DynaPro Plate Reader II (Wyatt Technologies). The instrument was configured with a 60 mW 830 nm laser and a detector angle of 158°. A 25 μL sample of each formulation was pipetted into each well of a 384-well plate and measured with 20 acquisitions per sample at 25° C. […] Quant-iT RiboGreen reagent was added, and fluorescence intensity was quantified using a Tecan Infinite […] plate reader.

[2] = ionizable compound (fulvestrant analog); cited from earlier work
[3] = Zeta potential (Malvern Zetasizer); format: physicochemical; details: FxNP
Method: Zeta potential was measured by diluting FXNPs in phosphate to an ion concentration of 1 mM and using a Malvern Zetasizer Nano ZS instrument.

[4] = Hydrodynamic diameter and polydispersity index by dynamic light scattering; format: physicochemical; details: FxNP
Text: as §1

| Structure (SMILES) | Encapsulation efficiency (%) ([1]; siFLuc, DOPC) | Small molecule drug mass % ([1]; siFLuc, DOPC) [%] | siRNA mass % ([1]; siFLuc, DOPC) [%] | Encapsulation efficiency (%) ([1]; siFLuc, DSPC) | Small molecule drug mass % ([1]; siFLuc, DSPC) [%] | siRNA mass % ([1]; siFLuc, DSPC) [%] | Encapsulation efficiency (%) ([1]; sinLuc, DOPC) | Small molecule drug mass % ([1]; sinLuc, DOPC) [%] | siRNA mass % ([1]; sinLuc, DOPC) [%] | Zeta potential (mV) ([3]; siFLuc, DOPC) | Zeta potential (mV) ([3]; siFLuc, DSPC) | Zeta potential (mV) ([3]; sinLuc, DOPC) | Hydrodynamic diameter (nm) ([4]; siFLuc, DOPC) | PDI ([4]; siFLuc, DOPC) | Hydrodynamic diameter (nm) ([4]; siFLuc, DSPC) | PDI ([4]; siFLuc, DSPC) | Hydrodynamic diameter (nm) ([4]; sinLuc, DOPC) | PDI ([4]; sinLuc, DOPC) | pKa [2] | nanoparticle formation with RNA cargos of varying molecular weight ([1]; siRNA, T.U. RNA, rRNA, mRNA) |
| --- | --- | --- | --- | --- | --- | --- | --- | --- | --- | --- | --- | --- | --- | --- | --- | --- | --- | --- | --- | --- |
| CC12CCC3c4ccc(O)cc4CC(CCCCCCCCCS(=O)(CCCC(F)(F)C(F)(F)F)=NC(=O)CN4CCOCC4)C3C1CCC2O (stereo not shown) [7a] | 58.7 | 56.7 | 3.0 | 69.9 | 56.3 | 3.6 | 79.5 | 56.1 | 4.0 | −11.27 | −12.97 | −11.80 | 245.9 | 0.035 | 149.3 | 0.022 | 243.5 | 0.014 | 5.1 | – |
| CN1CCN(CC(=O)N=S(=O)(CCCCCCCCCC2Cc3cc(O)ccc3C3CCC4(C)C(O)CCC4C23)CCCC(F)(F)C(F)(F)F)CC1 (stereo not shown) [7i] | – | – | – | 52.8 | 57.2 | 2.7 | – | – | – | – | −3.98 | – | – | – | 338.6 | 0.218 | – | – | 7.4 | – |
| CC12CCC3c4ccc(O)cc4CC(CCCCCCCCCS(=O)(CCCC(F)(F)C(F)(F)F)=NC(=O)CCN4CCOCC4)C3C1CCC2O (stereo not shown) [7d] | 80.3 | 56.5 | 4.0 | 88.3 | 56.3 | 4.4 | 76.4 | 56.6 | 3.8 | −8.00 | −11.83 | −14.27 | 199.0 | 0.066 | 154.9 | 0.036 | 224.8 | 0.093 | 5.7 | – |
| CC12CCC3c4ccc(O)cc4CC(CCCCCCCCCS(=O)(CCCC(F)(F)C(F)(F)F)=NC(=O)CCN4CCCC4)C3C1CCC2O (stereo not shown) [7j] | – | – | – | 72.0 | 56.2 | 3.7 | – | – | – | – | −3.56 | – | – | – | 337.1 | 0.225 | – | – | 7.6 | – |
| CC12CCC3c4ccc(O)cc4CC(CCCCCCCCCS(=O)(CCCC(F)(F)C(F)(F)F)=NC(=O)CN4CCCC4)C3C1CCC2O (stereo not shown) [7h] | – | – | – | 86.4 | 55.3 | 4.4 | – | – | – | – | −7.54 | – | – | – | 160.5 | 0.183 | – | – | 7.3 | – |
| CC12CCC3c4ccc(O)cc4CC(CCCCCCCCCS(=O)(CCCC(F)(F)C(F)(F)F)=NC(=O)CCN4CCCCC4)C3C1CCC2O (stereo not shown) [7g] | 96.6 | 56.0 | 4.8 | 94.7 | 56.0 | 4.7 | 94.9 | 56.0 | 4.7 | 3.39 | −4.92 | 0.01 | 186.2 | 0.022 | 170.8 | 0.076 | 181.8 | 0.042 | 7.3 | – |

More lines, main results first:

| Encapsulation efficiency (%) ([1]; siFLuc, DOPC) | Small molecule drug mass % ([1]; siFLuc, DOPC) [%] | siRNA mass % ([1]; siFLuc, DOPC) [%] | Encapsulation efficiency (%) ([1]; siFLuc, DSPC) | Small molecule drug mass % ([1]; siFLuc, DSPC) [%] | siRNA mass % ([1]; siFLuc, DSPC) [%] | Encapsulation efficiency (%) ([1]; sinLuc, DOPC) | Small molecule drug mass % ([1]; sinLuc, DOPC) [%] | siRNA mass % ([1]; sinLuc, DOPC) [%] | Zeta potential (mV) ([3]; siFLuc, DOPC) | Zeta potential (mV) ([3]; siFLuc, DSPC) | Zeta potential (mV) ([3]; sinLuc, DOPC) | Hydrodynamic diameter (nm) ([4]; siFLuc, DOPC) | PDI ([4]; siFLuc, DOPC) | Hydrodynamic diameter (nm) ([4]; siFLuc, DSPC) | PDI ([4]; siFLuc, DSPC) | Hydrodynamic diameter (nm) ([4]; sinLuc, DOPC) | PDI ([4]; sinLuc, DOPC) | Structure (SMILES) | pKa [2] | nanoparticle formation with RNA cargos of varying molecular weight ([1]; siRNA, T.U. RNA, rRNA, mRNA) |
| --- | --- | --- | --- | --- | --- | --- | --- | --- | --- | --- | --- | --- | --- | --- | --- | --- | --- | --- | --- | --- |
| 91.3 | 54.3 | 4.8 | 94.8 | 54.2 | 4.9 | 92.4 | 54.3 | 4.8 | −5.09 | −10.01 | −3.97 | 155.5 | 0.041 | 147.8 | 0.075 | 161.0 | 0.039 | CN(C)CC(=O)N=S(=O)(CCCCCCCCCC1Cc2cc(O)ccc2C2CCC3(C)C(O)CCC3C12)CCCC(F)(F)C(F)(F)F (stereo not shown) [7f] | 7.0 | form nanoparticles encapsulating a range of RNA cargos |
| 81.7 | 55.4 | 4.2 | 85.5 | 55.2 | 4.4 | 84.9 | 55.3 | 4.4 | −7.61 | −12.50 | −11.53 | 289.8 | 0.003 | 141.0 | 0.019 | 296.2 | 0.012 | CC12CCC3c4ccc(O)cc4CC(CCCCCCCCCS(=O)(CCCC(F)(F)C(F)(F)F)=NC(=O)Cn4ccnc4)C3C1CCC2O (stereo not shown) [7b] | 5.4 | – |
| 87.5 | 55.7 | 4.4 | 89.3 | 55.6 | 4.5 | 73.7 | 56.1 | 3.8 | −8.02 | −10.15 | −10.97 | 159.4 | 0.043 | 136.0 | 0.017 | 180.1 | 0.072 | CC12CCC3c4ccc(O)cc4CC(CCCCCCCCCS(=O)(CCCC(F)(F)C(F)(F)F)=NC(=O)CCn4ccnc4)C3C1CCC2O (stereo not shown) [7c] | 5.5 | – |
